Reference: PubChem BioAssay AID1963422 (Molecular Pharmacology Branch, DTP, NCI, 2024)
Blank lines part the entries; values can stand above or below the molecule they belong to.

Test system: 463943-066-T-J2-PDC complex spheroid growth
Assay: Anticancer human tumor 463943-066-T-J2-PDC patient-derived colon adenocarcinoma cell line growth inhibition [Asc]
Conditions: for IC50: curve of first compound; for viability, T/C: stronger effect = lower value
Outline: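 Complex spheroids combining tumor cells with HUVEC endothelial cells and human MSCs, at 37 degrees C, 5% CO2; agents tested alone or combined, half-log dilutions from at or near clinical Cmax, or 10 microM if Cmax unknown.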

[1] = second compound 0.0316 µM, first compound 0.00316 µM
[2] = second compound 0.0316 µM, first compound 0.01 µM
[3] = second compound 0.0316 µM, first compound 0.0316 µM
[4] = second compound 0.0316 µM, first compound 0.1 µM
[5] = second compound 0.1 µM, first compound 0.00316 µM
[6] = second compound 0.1 µM, first compound 0.01 µM
[7] = second compound 0.1 µM, first compound 0.0316 µM
[8] = second compound 0.1 µM, first compound 0.1 µM
[9] = second compound 0.316 µM, first compound 0.00316 µM
[10] = second compound 0.316 µM, first compound 0.01 µM
[11] = second compound 0.316 µM, first compound 0.0316 µM
[12] = second compound 0.316 µM, first compound 0.1 µM
[13] = second compound 1 µM, first compound 0.00316 µM
[14] = second compound 1 µM, first compound 0.01 µM
[15] = second compound 1 µM, first compound 0.0316 µM
[16] = second compound 1 µM, first compound 0.1 µM
[17] = second compound 3.16 µM, first compound 0.00316 µM
[18] = second compound 3.16 µM, first compound 0.01 µM
[19] = second compound 3.16 µM, first compound 0.0316 µM
[20] = second compound 3.16 µM, first compound 0.1 µM
[21] = second compound 10 µM, first compound 0.00316 µM
[22] = second compound 10 µM, first compound 0.01 µM
[23] = second compound 10 µM, first compound 0.0316 µM
[24] = second compound 10 µM, first compound 0.1 µM
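Note: compound exposure lasted 7 days.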
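Throughout, for viability, T/C: 100% = DMSO vehicle control wells.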

- IC50 (second compound 0.0316 µM): > 0.1 µM
- IC50 (second compound 0.1 µM): > 0.1 µM
- IC50 (second compound 0.316 µM): > 0.1 µM
- IC50 (second compound 1 µM): > 0.1 µM
- IC50 (second compound 3.16 µM): > 0.1 µM
- IC50 (second compound 10 µM): < 0.000316 µM
SMILES: NC1CCC(NC2CC2c2ccccc2)CC1 (stereo unspecified) + Cc1c(S(C)(=O)=O)c(-c2cc(F)cc(N3CCN(c4ccc(NS(=O)(=O)c5ccc(NC(CCN6CCC(C(=O)OCCCP(=O)(O)O)CC6)CSc6ccccc6)c(S(=O)(=O)C(F)(F)F)c5)cc4)CC3)c2)c(-c2ccc(Cl)cc2)n1C(C)C
- viability, T/C (second compound 0.0316 µM, first compound 0.000316 µM): 88%
- viability, T/C (second compound 0.0316 µM, first compound 0.001 µM): 82.3%
- viability, T/C [1]: 81.4%
- viability, T/C [2]: 84.3%
- viability, T/C [3]: 88.5%
- viability, T/C [4]: 80.5%
- viability, T/C (second compound 0.1 µM, first compound 0.000316 µM): 94.4%
- viability, T/C (second compound 0.1 µM, first compound 0.001 µM): 85.5%
- viability, T/C [5]: 95.6%
- viability, T/C [6]: 82.7%
- viability, T/C [7]: 87.7%
- viability, T/C [8]: 76.9%
- viability, T/C (second compound 0.316 µM, first compound 0.000316 µM): 88.1%
- viability, T/C (second compound 0.316 µM, first compound 0.001 µM): 81.7%
- viability, T/C [9]: 77.9%
- viability, T/C [10]: 85%
- viability, T/C [11]: 80%
- viability, T/C [12]: 80.2%
- viability, T/C (second compound 1 µM, first compound 0.000316 µM): 75.3%
- viability, T/C (second compound 1 µM, first compound 0.001 µM): 72.5%
- viability, T/C [13]: 73.8%
- viability, T/C [14]: 71.9%
- viability, T/C [15]: 71.9%
- viability, T/C [16]: 68.4%
- viability, T/C (second compound 3.16 µM, first compound 0.000316 µM): 59.3%
- viability, T/C (second compound 3.16 µM, first compound 0.001 µM): 58.6%
- viability, T/C [17]: 59.3%
- viability, T/C [18]: 58.6%
- viability, T/C [19]: 60.1%
- viability, T/C [20]: 56.1%
- viability, T/C (second compound 10 µM, first compound 0.000316 µM): 45.1%
- viability, T/C (second compound 10 µM, first compound 0.001 µM): 48.8%
- viability, T/C [21]: 51.6%
- viability, T/C [22]: 49.1%
- viability, T/C [23]: 52.3%
- viability, T/C [24]: 52.6%

- IC50 (second compound 0.00949 µM): > 1 µM
- IC50 (second compound 0.03 µM): > 1 µM
- IC50 (second compound 0.0949 µM): > 1 µM
- IC50 (second compound 0.3 µM): > 1 µM
- IC50 (second compound 0.949 µM): > 1 µM
- IC50 (second compound 3 µM): > 1 µM
SMILES: CNC(C)C(=O)NC1CN(S(=O)(=O)c2cccc(S(=O)(=O)N3CCC4CCC(C(=O)NC(c5ccccc5)c5ccccc5)N4C(=O)C(NC(=O)C(C)NC)C3)c2)CCC2CCC(C(=O)NC(c3ccccc3)c3ccccc3)N2C1=O (stereo unspecified) + CCN1C(C(=O)NC23CCC(C(=O)O)(CC2)CC3)C(c2cccc(Cl)c2F)C2(C(=O)Nc3cc(Cl)ccc32)C12CCCCC2
- viability, T/C (second compound 0.00949 µM, first compound 0.00316 µM): 96.9%
- viability, T/C (second compound 0.00949 µM, first compound 0.01 µM): 93.3%
- viability, T/C (second compound 0.00949 µM, first compound 0.0316 µM): 99.3%
- viability, T/C (second compound 0.00949 µM, first compound 0.1 µM): 93.7%
- viability, T/C (second compound 0.00949 µM, first compound 0.316 µM): 95.9%
- viability, T/C (second compound 0.00949 µM, first compound 1 µM): 86.8%
- viability, T/C (second compound 0.03 µM, first compound 0.00316 µM): 103%
- viability, T/C (second compound 0.03 µM, first compound 0.01 µM): 96.6%
- viability, T/C (second compound 0.03 µM, first compound 0.0316 µM): 89.4%
- viability, T/C (second compound 0.03 µM, first compound 0.1 µM): 93.2%
- viability, T/C (second compound 0.03 µM, first compound 0.316 µM): 95%
- viability, T/C (second compound 0.03 µM, first compound 1 µM): 85%
- viability, T/C (second compound 0.0949 µM, first compound 0.00316 µM): 94.2%
- viability, T/C (second compound 0.0949 µM, first compound 0.01 µM): 93.2%
- viability, T/C (second compound 0.0949 µM, first compound 0.0316 µM): 81.9%
- viability, T/C (second compound 0.0949 µM, first compound 0.1 µM): 89.3%
- viability, T/C (second compound 0.0949 µM, first compound 0.316 µM): 91.8%
- viability, T/C (second compound 0.0949 µM, first compound 1 µM): 86.1%
- viability, T/C (second compound 0.3 µM, first compound 0.00316 µM): 83.8%
- viability, T/C (second compound 0.3 µM, first compound 0.01 µM): 81.1%
- viability, T/C (second compound 0.3 µM, first compound 0.0316 µM): 82.1%
- viability, T/C (second compound 0.3 µM, first compound 0.1 µM): 81.9%
- viability, T/C (second compound 0.3 µM, first compound 0.316 µM): 84.6%
- viability, T/C (second compound 0.3 µM, first compound 1 µM): 81%
- viability, T/C (second compound 0.949 µM, first compound 0.00316 µM): 73.1%
- viability, T/C (second compound 0.949 µM, first compound 0.01 µM): 85.1%
- viability, T/C (second compound 0.949 µM, first compound 0.0316 µM): 76.1%
- viability, T/C (second compound 0.949 µM, first compound 0.1 µM): 75.8%
- viability, T/C (second compound 0.949 µM, first compound 0.316 µM): 76.8%
- viability, T/C (second compound 0.949 µM, first compound 1 µM): 71.5%
- viability, T/C (second compound 3 µM, first compound 0.00316 µM): 71.1%
- viability, T/C (second compound 3 µM, first compound 0.01 µM): 73.2%
- viability, T/C (second compound 3 µM, first compound 0.0316 µM): 74.7%
- viability, T/C (second compound 3 µM, first compound 0.1 µM): 69.3%
- viability, T/C (second compound 3 µM, first compound 0.316 µM): 75.5%
- viability, T/C (second compound 3 µM, first compound 1 µM): 69.4%

- IC50 (second compound 0.0316 µM): > 1 µM
- IC50 (second compound 0.1 µM): > 1 µM
- IC50 (second compound 0.316 µM): > 1 µM
- IC50 (second compound 1 µM): > 1 µM
- IC50 (second compound 3.16 µM): > 1 µM
- IC50 (second compound 10 µM): 0.393 µM
SMILES: CCN1CCN(Cc2ccc(Nc3ncc(F)c(-c4cc(F)c5nc(C)n(C(C)C)c5c4)n3)nc2)CC1 + Cc1c(S(C)(=O)=O)c(-c2cc(F)cc(N3CCN(c4ccc(NS(=O)(=O)c5ccc(NC(CCN6CCC(C(=O)OCCCP(=O)(O)O)CC6)CSc6ccccc6)c(S(=O)(=O)C(F)(F)F)c5)cc4)CC3)c2)c(-c2ccc(Cl)cc2)n1C(C)C
- viability, T/C [1]: 98.2%
- viability, T/C [2]: 104%
- viability, T/C [3]: 87.9%
- viability, T/C [4]: 96.6%
- viability, T/C (second compound 0.0316 µM, first compound 0.316 µM): 109%
- viability, T/C (second compound 0.0316 µM, first compound 1 µM): 106%
- viability, T/C [5]: 94%
- viability, T/C [6]: 95.5%
- viability, T/C [7]: 92.1%
- viability, T/C [8]: 90.5%
- viability, T/C (second compound 0.1 µM, first compound 0.316 µM): 103%
- viability, T/C (second compound 0.1 µM, first compound 1 µM): 96.8%
- viability, T/C [9]: 90.9%
- viability, T/C [10]: 91.2%
- viability, T/C [11]: 84.4%
- viability, T/C [12]: 88.5%
- viability, T/C (second compound 0.316 µM, first compound 0.316 µM): 90.3%
- viability, T/C (second compound 0.316 µM, first compound 1 µM): 90%
- viability, T/C [13]: 79.7%
- viability, T/C [14]: 81.3%
- viability, T/C [15]: 76%
- viability, T/C [16]: 79%
- viability, T/C (second compound 1 µM, first compound 0.316 µM): 80.6%
- viability, T/C (second compound 1 µM, first compound 1 µM): 72.3%
- viability, T/C [17]: 61.8%
- viability, T/C [18]: 61.5%
- viability, T/C [19]: 62.4%
- viability, T/C [20]: 62.9%
- viability, T/C (second compound 3.16 µM, first compound 0.316 µM): 60%
- viability, T/C (second compound 3.16 µM, first compound 1 µM): 56%
- viability, T/C [21]: 49.1%
- viability, T/C [22]: 52.6%
- viability, T/C [23]: 51.4%
- viability, T/C [24]: 52.9%
- viability, T/C (second compound 10 µM, first compound 0.316 µM): 51.2%
- viability, T/C (second compound 10 µM, first compound 1 µM): 44.8%
